Assay results as given in PubChem BioAssay (NCI).
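Following 48 hours of exposure in 96-well plates, responses at five concentrations were used to interpolate endpoints linearly. Definition used: TGI = concentration required for complete inhibition of growth.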

Legend:
Assay in all cases: NCI tumour cell line growth inhibition, 48 h
PC-3 prostate = test system: PC-3 prostate
A498 renal = test system: A498 renal
SN12C renal = test system: SN12C renal
NCI-H226 lung = test system: NCI-H226 lung
SK-MEL-5 melanoma = test system: SK-MEL-5 melanoma
HOP-92 NSCLC = test system: HOP-92 NSCLC
786-0 renal = test system: 786-0 renal
UACC-62 melanoma = test system: UACC-62 melanoma
UACC-257 melanoma = test system: UACC-257 melanoma
NCI-H23 lung = test system: NCI-H23 lung
NCI-H522 lung = test system: NCI-H522 lung
CAKI-1 renal = test system: CAKI-1 renal
HCT-15 colon = test system: HCT-15 colon
SK-MEL-28 melanoma = test system: SK-MEL-28 melanoma
OVCAR-4 ovarian = test system: OVCAR-4 ovarian
OVCAR-8 ovarian = test system: OVCAR-8 ovarian
HL-60(TB) leukemia = test system: HL-60(TB) leukemia
SK-MEL-2 melanoma = test system: SK-MEL-2 melanoma
RXF 393 renal = test system: RXF 393 renal
CCRF-CEM leukemia = test system: CCRF-CEM leukemia
A549 NSCLC = test system: A549 NSCLC
SNB-19 CNS = test system: SNB-19 CNS
K-562 leukemia = test system: K-562 leukemia
OVCAR-3 ovarian = test system: OVCAR-3 ovarian
RPMI-8226 leukemia = test system: RPMI-8226 leukemia
M14 melanoma = test system: M14 melanoma
OVCAR-5 ovarian = test system: OVCAR-5 ovarian
UO-31 renal = test system: UO-31 renal
LOX IMVI melanoma = test system: LOX IMVI melanoma
TK-10 renal = test system: TK-10 renal
HT29 colon = test system: HT29 colon
U251 CNS = test system: U251 CNS
ACHN renal = test system: ACHN renal
MDA-MB-231 breast = test system: MDA-MB-231 breast
MCF7 breast = test system: MCF7 breast
SR leukemia = test system: SR leukemia
NCI-H460 lung = test system: NCI-H460 lung
COLO 205 colon = test system: COLO 205 colon
IGROV1 ovarian = test system: IGROV1 ovarian
SF-539 CNS = test system: SF-539 CNS
DU-145 prostate = test system: DU-145 prostate
SF-295 CNS = test system: SF-295 CNS
MOLT-4 leukemia = test system: MOLT-4 leukemia
HCT-116 colon = test system: HCT-116 colon
EKVX NSCLC = test system: EKVX NSCLC
MDA-MB-435 = test system: MDA-MB-435
SW-620 colon = test system: SW-620 colon
NCI/ADR-RES ovarian = test system: NCI/ADR-RES ovarian
MDA-N = test system: MDA-N
MALME-3M melanoma = test system: MALME-3M melanoma
SK-OV-3 ovarian = test system: SK-OV-3 ovarian
HOP-62 NSCLC = test system: HOP-62 NSCLC
HCC-2998 colon = test system: HCC-2998 colon
KM12 colon = test system: KM12 colon
SNB-75 CNS = test system: SNB-75 CNS
SF-268 CNS = test system: SF-268 CNS
T-47D breast = test system: T-47D breast

C[C@]12CCC(N3CCCC3)CC1=CC[C@@H]1[C@@H]2CC[C@]2(C)C(O)[C@H](n3ccnc3)C[C@@H]12 (some centres undefined)
TGI (PC-3 prostate): > 100 µM | TGI (A498 renal): > 100 µM | TGI (SN12C renal): > 100 µM | TGI (NCI-H226 lung): > 100 µM | TGI (SK-MEL-5 melanoma): > 100 µM | TGI (HOP-92 NSCLC): > 100 µM | TGI (786-0 renal): > 100 µM | TGI (UACC-62 melanoma): > 100 µM | TGI (UACC-257 melanoma): > 100 µM | TGI (NCI-H23 lung): > 100 µM | TGI (NCI-H522 lung): > 100 µM | TGI (CAKI-1 renal): > 100 µM | TGI (HCT-15 colon): > 100 µM | TGI (SK-MEL-28 melanoma): 68.5 µM | TGI (OVCAR-4 ovarian): > 100 µM | TGI (OVCAR-8 ovarian): > 100 µM | TGI (HL-60(TB) leukemia): 36.1 µM | TGI (SK-MEL-2 melanoma): > 100 µM | TGI (RXF 393 renal): 72.8 µM | TGI (CCRF-CEM leukemia): > 100 µM | TGI (A549 NSCLC): > 100 µM | TGI (SNB-19 CNS): > 100 µM | TGI (K-562 leukemia): > 100 µM | TGI (OVCAR-3 ovarian): > 100 µM | TGI (RPMI-8226 leukemia): > 100 µM | TGI (M14 melanoma): 34.4 µM | TGI (OVCAR-5 ovarian): > 100 µM | TGI (UO-31 renal): > 100 µM | TGI (LOX IMVI melanoma): > 100 µM | TGI (TK-10 renal): > 100 µM | TGI (HT29 colon): > 100 µM | TGI (U251 CNS): > 100 µM | TGI (ACHN renal): > 100 µM | TGI (MDA-MB-231 breast): > 100 µM | TGI (MCF7 breast): > 100 µM | TGI (SR leukemia): 43.9 µM | TGI (NCI-H460 lung): > 100 µM | TGI (COLO 205 colon): > 100 µM | TGI (IGROV1 ovarian): > 100 µM | TGI (SF-539 CNS): 46.5 µM | TGI (DU-145 prostate): > 100 µM | TGI (SF-295 CNS): > 100 µM | TGI (MOLT-4 leukemia): 83.6 µM | TGI (HCT-116 colon): > 100 µM | TGI (EKVX NSCLC): > 100 µM | TGI (MDA-MB-435): > 100 µM | TGI (SW-620 colon): > 100 µM | TGI (NCI/ADR-RES ovarian): > 100 µM | TGI (MDA-N): > 100 µM

O=c1c2ccccc2n2c(-c3ccc(O)cc3)nnc2n1-c1ccccc1
TGI (PC-3 prostate): 33.6 µM | TGI (A498 renal): 31.6 µM | TGI (SN12C renal): 32.2 µM | TGI (NCI-H226 lung): 53.6 µM | TGI (SK-MEL-5 melanoma): 37.2 µM | TGI (HOP-92 NSCLC): 45.6 µM | TGI (MALME-3M melanoma): 42.6 µM | TGI (786-0 renal): 33.7 µM | TGI (UACC-62 melanoma): 38.9 µM | TGI (UACC-257 melanoma): 41.8 µM | TGI (NCI-H23 lung): 37.7 µM | TGI (NCI-H522 lung): 38.8 µM | TGI (CAKI-1 renal): 65 µM | TGI (HCT-15 colon): 50.7 µM | TGI (SK-OV-3 ovarian): 38.3 µM | TGI (SK-MEL-28 melanoma): 43.3 µM | TGI (OVCAR-4 ovarian): 45.3 µM | TGI (HOP-62 NSCLC): 41 µM | TGI (OVCAR-8 ovarian): 90.6 µM | TGI (HL-60(TB) leukemia): > 100 µM | TGI (SK-MEL-2 melanoma): 40.9 µM | TGI (HCC-2998 colon): > 100 µM | TGI (RXF 393 renal): 39.4 µM | TGI (KM12 colon): > 100 µM | TGI (CCRF-CEM leukemia): 51.3 µM | TGI (A549 NSCLC): 38.6 µM | TGI (SNB-19 CNS): 39.7 µM | TGI (K-562 leukemia): 26.2 µM | TGI (OVCAR-3 ovarian): 39.5 µM | TGI (M14 melanoma): 39.8 µM | TGI (OVCAR-5 ovarian): > 100 µM | TGI (UO-31 renal): 6.83 µM | TGI (LOX IMVI melanoma): 55.4 µM | TGI (TK-10 renal): 43.5 µM | TGI (SNB-75 CNS): 38.5 µM | TGI (HT29 colon): 43.9 µM | TGI (U251 CNS): 32.4 µM | TGI (ACHN renal): 30 µM | TGI (MDA-MB-231 breast): 40.3 µM | TGI (SR leukemia): 46.2 µM | TGI (NCI-H460 lung): 40 µM | TGI (COLO 205 colon): > 100 µM | TGI (SF-268 CNS): 38.9 µM | TGI (IGROV1 ovarian): 34.9 µM | TGI (SF-539 CNS): 33.9 µM | TGI (DU-145 prostate): 40.1 µM | TGI (SF-295 CNS): 31.5 µM | TGI (MOLT-4 leukemia): > 100 µM | TGI (HCT-116 colon): 41.2 µM | TGI (EKVX NSCLC): 34.7 µM | TGI (MDA-MB-435): 36.2 µM | TGI (T-47D breast): 34.8 µM | TGI (SW-620 colon): 29.8 µM | TGI (NCI/ADR-RES ovarian): 48.5 µM | TGI (MDA-N): 34.1 µM
